Source: ChEMBL document CHEMBL1144867, “Antiviral amphipathic oligo- and polyribonucleotides: analogue development and biological studies” (J Med Chem, 2003)

Test system: MRC5
Assay: Inhibitory activity of compound against human cytomegalovirus (HCMV) in MRC-5 cells.
Type: functional, cell-based

Nc1nc2c(ncn2COC(CO)CO)c(=O)[nH]1 [GANCICLOVIR]
EC50: 9.4 µM
